Values joined by “and” are separate entries in the source; they are usually repeats but may differ in a detail not shown here. Equal values may be shown once.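 Results reflect a 48-hour exposure of cells in 96-well plates to compound at five concentrations. The concentration for 50% growth inhibition is given as GI50. TGI: concentration producing complete growth inhibition.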
What was measured:
Assay in all cases: NCI-60 cell line screen, 48 h
SF-268 CNS = system: SF-268 CNS
SK-OV-3 ovarian = system: SK-OV-3 ovarian
HCT-116 colon = system: HCT-116 colon
786-0 renal = system: 786-0 renal
A498 renal = system: A498 renal
HT29 colon = system: HT29 colon
OVCAR-4 ovarian = system: OVCAR-4 ovarian
U251 CNS = system: U251 CNS
IGROV1 ovarian = system: IGROV1 ovarian
RPMI-8226 leukemia = system: RPMI-8226 leukemia
K-562 leukemia = system: K-562 leukemia

Compound | TGI (SF-268 CNS) | TGI (SK-OV-3 ovarian) | TGI (HCT-116 colon) | TGI (786-0 renal) | TGI (A498 renal) | TGI (HT29 colon) | TGI (OVCAR-4 ovarian) | TGI (U251 CNS) | TGI (IGROV1 ovarian) | TGI (RPMI-8226 leukemia) | TGI (K-562 leukemia) | GI50 (SF-268 CNS) | GI50 (HCT-116 colon) | GI50 (HT29 colon) | GI50 (K-562 leukemia) | GI50 (OVCAR-4 ovarian) | GI50 (U251 CNS)
NCCSC(c1ccccc1)c1ccccc1 | > 100 µM | 70.8 µM | 30.9 µM | 32.8 µM | 62.5 µM | 35.5 µM | 46.8 µM | 33.3 µM | 27.8 µM | 37.4 µM | – | – | – | – | – | – | –
Nc1nc(SCCc2ccccc2)nc2nc3c(c(-c4ccccc4)c12)CCCC3 | > 100 µM | > 100 µM | – | – | – | > 100 µM | > 100 µM | > 100 µM | > 100 µM | > 100 µM | > 100 µM | – | – | – | – | – | –
CCOC(=O)C1=NN(c2ccc(C)cc2)C2=CC(C)=NN(C)C(=S)N21 | > 100 µM | > 100 µM | > 100 µM | – | – | > 100 µM | > 100 µM | > 100 µM | > 100 µM | > 100 µM | > 100 µM | – | – | – | – | – | –
CCOC(=O)C(NC(=O)c1ccco1)(Nc1nc2ccc(OCC)cc2s1)C(F)(F)F (stereo unspecified) | > 100 µM | > 100 µM | 91.2 µM | 68.4 µM | – | > 100 µM | > 100 µM | > 100 µM | – | – | > 100 µM | – | – | – | – | – | –
O=C(c1cccs1)N(C(=S)OC12CC3CC(CC(C3)C1)C2)c1ccccc1 | > 100 µM | > 100 µM | 59.3 µM | > 100 µM | > 100 µM | > 100 µM | > 100 µM | > 100 µM | – | – | > 100 µM | – | – | – | – | – | –
COc1ccc2c(c1)[nH]c1c(/C=C/c3ccccc3)nccc12 | 36.7 µM | 34.9 µM | 30.4 µM | 42.2 µM | 26.6 µM | 33.9 µM | > 100 µM | 38.9 µM | > 100 µM | 93.5 µM | > 100 µM | – | – | – | – | – | –
CC12CC3OC(=O)C1COC14OC5(C2C1=O)C(O)(CCC1C4CC(O)C2(O)CC=CC(=O)C12C)C(=O)OC35C (stereo unspecified) | > 100 µM | > 100 µM | > 100 µM | > 100 µM | – | > 100 µM | > 100 µM | > 100 µM | > 100 µM | > 100 µM | > 100 µM | – | – | – | – | – | –
CC1CC[C@@]2(OC1)OC1C[C@H]3[C@@H]4CC=C5CC(OC6OC(CO)C(OC7OC(CO)C(O)C(OC8OCC(O)C(O)C8O)C7OC7OC(CO)C(O)C(O)C7O)C(O)C6O)CCC5(C)[C@H]4CCC3(C)C1[C@@H]2C (stereo partly specified) | 9.45 µM | 20.7 µM | 8.14 µM | 19.4 µM | 9.19 µM | 9.4 µM | 17.4 µM | 8.72 µM | 8.06 µM | 18.4 µM | 17.7 µM | – | – | – | – | – | –
Cc1ccccc1C(=O)N/N=C/c1ccc(Sc2nccn2C)c([N+](=O)[O-])c1 | > 100 µM | > 100 µM | > 100 µM | > 100 µM | > 100 µM | > 100 µM | > 100 µM | > 100 µM | > 100 µM | > 100 µM | > 100 µM | – | – | – | – | – | –
[N-]=[N+]=CC(=O)c1ccccc1C#CCCc1ccccc1 | – | 66.7 µM | 48.9 µM | – | > 100 µM | 36.7 µM | > 100 µM | 88.5 µM | > 100 µM | 50.2 µM | > 100 µM | – | – | – | – | – | –
Cc1c(N2C(=O)CS(=O)(=O)C2c2cccc(Oc3ccccc3)c2)c(=O)n(-c2ccccc2)n1C (stereo unspecified) | > 100 µM | > 100 µM | > 100 µM | – | 55.9 µM | > 100 µM | 66.3 µM | > 100 µM | > 100 µM | 74.4 µM | > 100 µM | – | – | – | – | – | –
O=C(C[n+]1ccc2ccccc2c1)c1ccc2ccc3ccccc3c2c1 | 19.9 µM | 21 µM | 13.6 µM | 18 µM | 18.6 µM | 12.2 µM | 19.7 µM | 14.6 µM | 17.2 µM | 0.646 µM | 1.99 µM | – | – | – | – | – | –
COc1nc(C#CC2(O)CCCCC2)nc(OC)n1 | 40.7 µM | > 100 µM | > 100 µM | > 100 µM | 31.2 µM | 45.4 µM | 4.44 µM | 26.4 µM | 23.1 µM | 10.5 µM | > 100 µM | – | – | – | – | – | –
CCCCCCCCC/C=C/C=C/C(=O)NCC(=O)NC1C(O)C(O)C(Nc2ncnc3nc[nH]c23)OC1C(O)CO (stereo unspecified) | 0.671 µM | 0.00892 µM | > 100 µM | 0.176 µM and 0.256 µM | – | 0.349 µM and 0.117 µM | 0.0515 µM | 0.0217 µM | 0.00337 µM | – | > 100 µM | 0.00558 µM | 0.00251 µM | 0.000103 µM | 0.36 µM | 0.00022 µM | 0.00214 µM
CNC(=O)OCc1c(CO)nc(SC)n1C | > 100 µM | > 100 µM | > 100 µM | – | > 100 µM | > 100 µM | > 100 µM | > 100 µM | > 100 µM | > 100 µM | > 100 µM | – | – | – | – | – | –
CC(=O)C1=C(C)N(c2ccc(C)cc2)C2(O)C=CC(=O)C3C(=O)N(c4ccccc4)C(=O)C132 (stereo unspecified) | > 100 µM | – | > 100 µM | > 100 µM | 39.6 µM | 44.8 µM | 41.2 µM | 65.6 µM | 22.3 µM | > 100 µM | 66.3 µM | – | – | – | – | – | –
CCC1CN(C(=O)c2ccccc2)C(Cc2c[nH]c3ccccc23)C(=O)C1CC(=O)OC (stereo unspecified) | > 100 µM | > 100 µM | – | – | 64.3 µM | > 100 µM | > 100 µM | > 100 µM | > 100 µM | – | > 100 µM | – | – | – | – | – | –
